From publication PMC10140010 (Investigational New Drugs, 2023)
Several values for one entry are separate records, joined by “and”; a condition that tells them apart may be missing. Equal values may be shown once.

How the values were obtained:
CYP3A4 = test: Hepatic enzyme induction in human hepatocytes (gene expression); type: in vitro ADME
Procedure: Human hepatocytes derived from three donors were used for evaluating for hepatic enzyme inducing activity. […] The gene expression related to cytochrome P450 isoenzyme CYP3A4 in hepatocytes of one of the three donors increased with iruplinalkib 1 µM.

OCT2 [1] = biological target: T1, OCT2 (Homo sapiens, UniProt O15244); test: Uptake substrate investigation in HEK293 cells expressing transporter; type: in vitro ADME; details: for Uptake transport activity, Mean / Ratio of uptake transit activity / Uptake transport activity, Net value: Suppl. Table 11; for Ratio of uptake transit activity / Uptake transport activity, Net value: OCT2-293 vs MOCK293
T1 construct: No ESH9G27; host or cells: HEK293
T1 sequence (O15244 1-555): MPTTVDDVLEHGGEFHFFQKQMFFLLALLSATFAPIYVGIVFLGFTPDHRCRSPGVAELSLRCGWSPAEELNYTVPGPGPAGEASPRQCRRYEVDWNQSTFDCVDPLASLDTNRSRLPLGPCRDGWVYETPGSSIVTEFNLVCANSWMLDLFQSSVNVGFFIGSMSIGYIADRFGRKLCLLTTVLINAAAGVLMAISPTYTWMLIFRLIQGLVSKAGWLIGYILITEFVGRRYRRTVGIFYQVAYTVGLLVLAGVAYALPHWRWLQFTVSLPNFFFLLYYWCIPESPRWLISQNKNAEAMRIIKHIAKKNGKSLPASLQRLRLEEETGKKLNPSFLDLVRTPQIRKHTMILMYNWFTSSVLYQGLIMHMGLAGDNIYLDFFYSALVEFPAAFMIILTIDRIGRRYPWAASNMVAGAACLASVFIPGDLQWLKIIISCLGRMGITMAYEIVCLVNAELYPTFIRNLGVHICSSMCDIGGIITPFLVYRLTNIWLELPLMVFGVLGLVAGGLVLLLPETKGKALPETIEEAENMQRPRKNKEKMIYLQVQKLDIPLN

OCT2 [2] = biological target: T1, OCT2; test: Uptake inhibitor investigation in HEK293 cells expressing transporter; type: in vitro ADME; details: metformin as the substrate
OAT3 [3] = test: as above; type: in vitro ADME
EGFR wild type = EGFR wild type (Homo sapiens, UniProt P00533); test: Z'-LYTE kinase selectivity; details: read-out: IC50 EGFR wild type
BCRP = biological target: T2, BCRP (Homo sapiens, UniProt Q9UNQ0); test: ABC efflux transporter inhibitor test on Caco-2 cells (E3S efflux)
T2 sequence (Q9UNQ0 1-655): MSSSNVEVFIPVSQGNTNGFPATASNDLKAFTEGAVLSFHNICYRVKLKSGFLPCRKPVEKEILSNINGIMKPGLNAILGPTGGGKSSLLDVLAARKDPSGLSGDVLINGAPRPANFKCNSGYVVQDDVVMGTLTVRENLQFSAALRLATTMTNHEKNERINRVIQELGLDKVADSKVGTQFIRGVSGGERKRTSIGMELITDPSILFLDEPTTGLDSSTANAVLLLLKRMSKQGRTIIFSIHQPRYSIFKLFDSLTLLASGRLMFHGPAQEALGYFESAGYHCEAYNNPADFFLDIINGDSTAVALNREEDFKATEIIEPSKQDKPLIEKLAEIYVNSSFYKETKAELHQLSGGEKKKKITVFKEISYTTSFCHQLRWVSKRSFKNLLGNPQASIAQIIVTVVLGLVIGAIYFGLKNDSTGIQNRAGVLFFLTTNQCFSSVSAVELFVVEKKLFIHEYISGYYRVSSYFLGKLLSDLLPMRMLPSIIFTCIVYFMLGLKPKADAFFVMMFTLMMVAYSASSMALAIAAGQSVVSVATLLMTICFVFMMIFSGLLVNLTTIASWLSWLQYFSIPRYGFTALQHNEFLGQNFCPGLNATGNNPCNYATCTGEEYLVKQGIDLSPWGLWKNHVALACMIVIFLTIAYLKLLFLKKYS

OAT1 = test: Uptake substrate investigation in HEK293 cells expressing transporter
From the text: (§1) The engineered NIH-3T3 (CD74-ROS1 fusion gene) cells was obtained from Nanjing GenScript Biotechnology Co., Ltd. The engineered Ba/F3 (SLC34A2-ROS1 fusion gene) cell line was obtained from Kyinno Biotechnology (Beijing) Co., Ltd. The HCC-78 (SLC34A2-ROS1 fusion gene) cell line was purchased from Shanghai Hongshun Biotechnology Co., Ltd. The engineered NIH-3T3 (CD74-ROS1 fusion gene) cells was obtained from Nanjing GenScript Biotechnology Co., Ltd. The engineered HEK293 cell lines with OATP1B1 (Lot. No ESH6G27), OATP1B3 (Lot. No ESH7G27), OCT2 (Lot. No ESH9G27), OAT1 (Lot. No ESHCG27), OAT3 (Lot. […] No ESHDG27) were purchased from GenoMembrane and validated using the specific substrate for each transporter. All cells were cultured at 37℃ in a 5% CO2 atmosphere. Cell culture reagents were obtained from Life Technologies, Inc. See Supplemental Table 1 for details on the source of the cell lines and the media used.

OAT3 [4] = test: as above
From the text: as §1

[5] = human, HEK293 cells expressing OAT3, probe ATV, 1 μM, read-out: Inhibition rate
[6] = human, Caco-2 cells, probe E3S (10 µM)
[7] = MOCK293, test substrate 10 μM, no inhibitor, OAT1 pre-test
[8] = OATP1B1-293 (so in the source), test substrate 10 μM, no inhibitor, OAT1 pre-test
[9] = transporter cells vs MOCK293, test substrate 10 μM, no inhibitor, OAT1 pre-test
[10] = MOCK293, test substrate 10 μM, no inhibitor, OAT3 pre-test
[11] = OATP1B1-293 (so in the source), test substrate 10 μM, no inhibitor, OAT3 pre-test
[12] = transporter cells vs MOCK293, test substrate 10 μM, no inhibitor, OAT3 pre-test

EGFR wild type, sequence (P00533 25-1210): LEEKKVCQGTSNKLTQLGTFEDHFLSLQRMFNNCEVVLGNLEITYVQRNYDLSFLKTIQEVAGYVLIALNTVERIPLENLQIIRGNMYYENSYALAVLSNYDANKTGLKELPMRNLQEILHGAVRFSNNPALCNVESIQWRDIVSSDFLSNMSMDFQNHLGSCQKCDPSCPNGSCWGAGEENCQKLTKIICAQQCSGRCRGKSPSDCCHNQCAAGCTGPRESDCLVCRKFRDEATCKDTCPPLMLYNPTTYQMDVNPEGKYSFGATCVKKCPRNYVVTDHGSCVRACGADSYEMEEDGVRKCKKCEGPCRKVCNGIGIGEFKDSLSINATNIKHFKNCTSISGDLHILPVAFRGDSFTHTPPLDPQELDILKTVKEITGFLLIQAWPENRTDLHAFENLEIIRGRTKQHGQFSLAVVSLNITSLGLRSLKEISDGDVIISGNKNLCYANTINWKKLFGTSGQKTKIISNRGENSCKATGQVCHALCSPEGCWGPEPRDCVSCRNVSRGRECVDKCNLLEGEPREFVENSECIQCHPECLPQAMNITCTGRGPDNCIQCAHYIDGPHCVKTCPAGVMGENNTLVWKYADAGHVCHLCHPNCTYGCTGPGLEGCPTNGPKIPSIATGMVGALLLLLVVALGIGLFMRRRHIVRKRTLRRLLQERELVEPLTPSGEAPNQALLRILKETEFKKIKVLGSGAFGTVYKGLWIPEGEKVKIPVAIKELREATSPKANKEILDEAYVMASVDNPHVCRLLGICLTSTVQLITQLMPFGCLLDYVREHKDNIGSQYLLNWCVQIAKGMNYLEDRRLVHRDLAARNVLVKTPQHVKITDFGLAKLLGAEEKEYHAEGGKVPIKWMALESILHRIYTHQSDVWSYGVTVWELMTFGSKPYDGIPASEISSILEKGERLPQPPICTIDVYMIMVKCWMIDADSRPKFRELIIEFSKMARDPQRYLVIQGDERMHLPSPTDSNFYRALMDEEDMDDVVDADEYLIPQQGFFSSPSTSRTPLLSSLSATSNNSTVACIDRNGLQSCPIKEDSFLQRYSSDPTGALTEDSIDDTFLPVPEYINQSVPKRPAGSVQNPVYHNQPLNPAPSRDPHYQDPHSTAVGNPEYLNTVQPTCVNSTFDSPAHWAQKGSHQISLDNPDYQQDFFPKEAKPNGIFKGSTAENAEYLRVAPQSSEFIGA

COc1cc(N2CCC3(CCN(C)CC3)CC2)ccc1Nc1ncc(Cl)c(Nc2ccccc2P(C)(C)=O)n1 [Iruplinalkib]
inducer of CYP3A4 (CYP3A4; 10 µM, human hepatocytes from three donors): not an inducer
induction multiples of CYP3A4 gene expression (CYP3A4; donor 1, 0.1 µM): 0.621 fold
induction multiples of CYP3A4 gene expression (CYP3A4; donor 1, 1 µM): 2.99 fold
induction multiples of CYP3A4 gene expression (CYP3A4; donor 1, 10 µM): 2.38 fold
induction multiples of CYP3A4 gene expression (CYP3A4; donor 2, 0.1 µM): 0.879 fold
induction multiples of CYP3A4 gene expression (CYP3A4; donor 2, 1 µM): 1.80 fold
induction multiples of CYP3A4 gene expression (CYP3A4; donor 2, 10 µM): 2.81 fold
induction multiples of CYP3A4 gene expression (CYP3A4; donor 3, 0.1 µM): 0.964 fold
induction multiples of CYP3A4 gene expression (CYP3A4; donor 3, 1 µM): 9.36 fold
induction multiples of CYP3A4 gene expression (CYP3A4; donor 3, 10 µM): 1.86 fold
uptake transport activity ratio, OCT2 (OCT2 [1]; 30 µM, 3 µM, 0.3 µM, HEK293): less than two
uptake substrate of OCT2 (OCT2 [1]; HEK293): not an uptake substrate
Uptake transport activity, Mean (OCT2 [1]; MOCK293 (OCT2 set), 0.3 μM): 7.280 pmol/mg protein/min
Uptake transport activity, Mean (OCT2 [1]; MOCK293 (OCT2 set), 3 μM): 80.35 pmol/mg protein/min
Uptake transport activity, Mean (OCT2 [1]; MOCK293 (OCT2 set), 30 μM): 999.8 pmol/mg protein/min
Uptake transport activity, Mean (OCT2 [1]; OCT2-293, 0.3 μM): 8.178 pmol/mg protein/min
Uptake transport activity, Mean (OCT2 [1]; OCT2-293, 3 μM): 88.23 pmol/mg protein/min
Uptake transport activity, Mean (OCT2 [1]; OCT2-293, 30 μM): 1165.9 pmol/mg protein/min
Ratio of uptake transit activity (OCT2 [1]; 0.3 μM): 1.12
Uptake transport activity, Net value (OCT2 [1]; 0.3 μM): 0.90 pmol/mg protein/min
Ratio of uptake transit activity (OCT2 [1]; 3 μM): 1.10
Uptake transport activity, Net value (OCT2 [1]; 3 μM): 7.88 pmol/mg protein/min
Ratio of uptake transit activity (OCT2 [1]; 30 μM): 1.17
Uptake transport activity, Net value (OCT2 [1]; 30 μM): 166.05 pmol/mg protein/min
inhibition of OCT2 uptake (OCT2 [2]): only a weak inhibitory effect
inhibitory effect on OAT3 (OAT3 [3]; HEK293): no significant inhibitory effect
inhibition at 0.5 μM (OAT3 [3]; [5]): 26.7%
inhibition at 5 μM (OAT3 [3]; [5]): 22.5%
inhibition at 50 μM (OAT3 [3]; [5]): 31.9%
IC50 (EGFR wild type): 35 nM
BCRP inhibitor (BCRP; Caco-2): BCRP inhibitor
inhibition at 0.1 μM (BCRP; [6]): -11.1%
inhibition at 0.3 μM (BCRP; [6]): 37.7%
inhibition at 1 μM (BCRP; [6]): 8.3%
inhibition at 3 μM (BCRP; [6]): 50.9%
inhibition at 10 µM (BCRP; [6]): 97.2%
inhibition at 30 μM (BCRP; [6]): 26.3%
uptake substrate of OAT1 (OAT1; HEK293): not an uptake substrate
Uptake transport activity, Mean (OAT1; [7]): 313.6 pmol/mg protein/min
Uptake transport activity, Repeat 1 / Repeat 2 (OAT1; [7]): 302.7 pmol/mg protein/min and 324.5 pmol/mg protein/min
Uptake transport activity, Mean (OAT1; [8]): 289.1 pmol/mg protein/min
Uptake transport activity, Repeat 1 / Repeat 2 (OAT1; [8]): 285.7 pmol/mg protein/min and 292.5 pmol/mg protein/min
Ratio of uptake transit activity (OAT1; [9]): 0.92
Uptake transport activity, Net value (OAT1; [9]): -24.51 pmol/mg protein/min
uptake substrate of OAT3 (OAT3 [4]; HEK293): not an uptake substrate
Uptake transport activity, Mean (OAT3 [4]; [10]): 344.0 pmol/mg protein/min
Uptake transport activity, Repeat 1 / Repeat 2 (OAT3 [4]; [10]): 309.8 pmol/mg protein/min and 378.3 pmol/mg protein/min
Uptake transport activity, Mean (OAT3 [4]; [11]): 88.57 pmol/mg protein/min
Uptake transport activity, Repeat 1 / Repeat 2 (OAT3 [4]; [11]): 81.45 pmol/mg protein/min and 95.69 pmol/mg protein/min
Ratio of uptake transit activity (OAT3 [4]; [12]): 0.92
Uptake transport activity, Net value (OAT3 [4]; [12]): -255.5 pmol/mg protein/min
